According to patent US7192967B1, “Cyclic imide-substituted pyridylalkane, alkene, alkine carboxamides useful as cytostatic and immunosuppressive agents” (Astellas Pharma GmbH, priority 1997, dated 2007):

What was measured:
[1] = test system: HepG2 cells derived from a human liver carcinoma; assay: Growth inhibition of HepG2 cells, sulforhodamin-B-method, six days; format: cell-based; conditions: six days of substance incubation
Protocol: HepG2 cells derived from a human liver carcinoma plated at a density of 20,000 cells/ml in 12-well plastic dishes. Cultivation occurred in Richters IMEM-ZO nutrient medium with 5% foetal calf serum (FCS) in a tissue culture incubator with a gas mixture of 5% CO2 and 95% air at a temperature of 37° C. One day after plating, the culture medium was aspirated from the cells and replaced by fresh medium which contained the respective concentrations of the test substances. For the individual concentrations and the controls without test substances, three-fold batches were done for each. Three days after the beginning of treatment, the medium was again renewed with the test compounds. After six days of substance incubation, the test was ended and the protein amount in the individual wells was determined with the sulforhodamin-B-method (according to P. Skehan et al.: New Colorimetric Cytotoxicity Assay for Anticancer-Drug Screening. J. Natl. Cancer Inst. 82: 1107–1112, 1990). The IC50-values (defined as that concentration in which the cell growth was inhibited by 50%) was taken from the dose-response curves and given as a comparative measurement for the activity of the test compounds.

[2] = test system: lymphocytes from the spleen of a Swiss mouse; assay: Immunosuppressing activity on freshly isolated lymphocytes, vital cells by flow-through cytometer after 2 days; format: cell-based; conditions: vital cells after 2 days
Source text: Many anti-tumor agents have not only a cytotoxic effect on tumor cells, but also on the blood cell system. This leads to a weakening of the immune defence, which can, in turn, be specifically employed to suppress the rejection reaction after an organ transplantation for example. Also use of the main compounds, optionally in combination with other immunological diseases (for example, psoriasis or autoimmune diseases) seems likely. In order to test the possibility for a therapeutic use in illnesses of this type, the substance activity was tested on freshly isolated lymphocytes as follows:
The spleen of a Swiss mouse served as a lymphocyte source. The lymphocyte population was isolated from the spleen cell suspension over a ficoll gradient and taken up in IMEM-ZO culture medium with 0.1% dextran 70,000 and 2% foetal calf serum. […] Subsequently, 10,000 cells per each sample were measured on a flow-through cytometer and the percentage amount of vital cells in the population was determined. By means of the dose-response curves, IC50-values were calculated which were also employed in the following Tables for the characterization of the individual substances: […]

## N-[6-(2,5-dioxo-3,4-diphenyl-2,5-dihydropyrrol-1-yl)-hexyl])-3-pyridin-3-yl-acrylamide [substance 58]
[1]
  IC50: 500 nM
[2]
  IC50: 60 nM
